Test results taken from patent US20250346602A1, “LACTAM SUBSTITUTED IMIDAZOPYRIDAZINE IL-17A MODULATORS AND USES THEREOF” (DICE ALPHA, INC., priority 2022, published 2025).

target: T1, IL-17A/A (Homo sapiens, UniProt Q16552); assay: IL-17A/A HEK-Blue cell assay; format: cell-based; conditions: HEK-Blue IL-17A reporter cell line (HEK 293), IL-17A/A stimulation, 20 hours incubation, SEAP read at A630
T1 construct: purchased Genscript Z03228
T1 sequence (Q16552 24-155): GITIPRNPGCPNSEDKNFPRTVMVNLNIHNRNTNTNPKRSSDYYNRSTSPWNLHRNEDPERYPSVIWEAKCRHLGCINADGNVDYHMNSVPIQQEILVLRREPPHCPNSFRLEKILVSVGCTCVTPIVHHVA
Method: The HEK-Blue IL-17A reporter cell line (Fisher #NC1408637) was used for cell-based IL-17A/A inhibition assays. Cells were grown and prepared for assays according to the manufacturer's instructions. This cell line consists of HEK 293 cells that were designed to expressed IL-17RA, IL-17RC, and the ActI adapter molecule, the combination of which, when stimulated by IL-17A/A activates a NFκB promoter and drives expression of a recombinant Secreted Alkaline Phosphatase (SEAP) gene protein. Media from the cells is then added to a development reagent (Quanti-Blue Substrate, Fisher #NC9711613), and read at A630.
Compounds were titrated in DMSO, with a top final compound concentration of 10 uM, 1 uM, or 0.3 uM, and added to the cells immediately before adding IL-17A/A (Genscript #Z03228). The cells, compound, and IL-17A/A were then incubated for 20 hours before media was removed for SEAP analysis. The resulting inhibition curve was then analyzed using Graphpad Prism 7.0, and IC50 values were determined using a 4-parameter nonlinear fit. DMSO was added to a universal final concentration of 0.1% to optimize background.

Compared with `CCn1nccc1C(=O)N[C@H](c1cn2nc(CC3C(=O)NCC3C(F)(F)F)ccc2n1)C(C1CC1)C1CC1` (single isomer, unassigned) [Compound 44], `CCn1nccc1C(=O)N[C@H](c1cn2nc(CC3C[C@@H](C(F)(F)F)NC3=O)ccc2n1)C(C1CC1)C1CC1` (single isomer, unassigned) [Compound 15] is higher in IC50: 100 to 1000 nM for the first, > 1000 nM for the second. The first is the more potent here.

Compared with `CC1(c2nocc2C(=O)N[C@H](c2cn3nc(CC4C[C@@H](C(F)(F)F)CNC4=O)ccc3n2)C2CCC(F)(F)CC2)CC1` (stereo partly drawn) [Compound 123, N-((1S)-(4,4-difluorocyclohexyl)(6-(((5R)-2-oxo-5-(trifluoromethyl)piperidin-3-yl)methyl)imidazo[1,2-b]pyridazin-2-yl)methyl)-3-(1-methylcyclopropyl)isoxazole-4-carboxamide], `O=C1NC[C@H](C(F)(F)F)CC1Cc1ccc2nc([C@@H](NC(=O)C3(F)CC3)C3CCC(F)(F)CC3)cn2n1` (stereo partly drawn) [Compound 139, N-((1S)-(4,4-difluorocyclohexyl)(6-(((5R)-2-oxo-5-(trifluoromethyl)piperidin-3-yl)methyl)imidazo[1,2-b]pyridazin-2-yl)methyl)-1-fluorocyclopropane-1-carboxamide] is higher in IC50: 100 to 1000 nM for the first, > 1000 nM for the second. The first is the more potent here.

`CCn1nccc1C(=O)NC(c1cn2ncc(CC3CCC(C(F)(F)F)NC3=O)cc2n1)C1CCC(C)CC1` (single isomer, unassigned) [Compound 213] and `CCn1nccc1C(=O)NC(c1cn2ncc(CC3CC(F)(F)CNC3=O)cc2n1)C1CCC(C)CC1` (single isomer, unassigned) [Compound 210] cannot be ordered by IC50: > 1000 nM for the first, > 1000 nM for the second.

`CCn1nccc1C(=O)N[C@H](c1cn2nc(C(C)C3C[C@@H](C(F)(F)F)CNC3=O)ccc2n1)C(C1CC1)C1CC1` (single isomer, unassigned) [Compound 55] and `CCn1nccc1C(=O)N[C@H](c1cn2ncc(CC3C[C@@H](C(F)(F)F)CNC3=O)cc2n1)C(C1CC1)C1CC1` (single isomer, unassigned) [Compound 208] fall in the same range of IC50: 100 to 1000 nM for the first, 100 to 1000 nM for the second.

First: CCn1ncnc1C(=O)N[C@H](c1cn2nc(CC3C[C@@H](C(F)(F)F)CNC3=O)ccc2n1)[C@H]1CC[C@H](C)CC1 (stereo partly drawn) [Compound 166, N-((1S)-((1R.4S)-4-methylcyclohexyl)(6-(((5R)-2-oxo-5-(trifluoromethyl)piperidin-3-yl)methyl)imidazo[1,2-b]pyridazin-2-yl)methyl)-1-ethyl-1H-1,2,4-triazole-5-carboxamide]
Second: Cn1nccc1C(=O)N[C@H](c1cn2nc(CC3C[C@@H](C(F)(F)F)CNC3=O)ccc2n1)[C@H]1CC[C@H](C)CC1 (stereo partly drawn) [Compound 162, 1-methyl-N-((1S)-((1R.4S)-4-methylcyclohexyl)(6-(((5R)-2-oxo-5-(trifluoromethyl)piperidin-3-yl)methyl)imidazo[1,2-b]pyridazin-2-yl)methyl)-1H-pyrazole-5-carboxamide]
The IC50 of the first is higher: > 1000 nM for the first, 100 to 1000 nM for the second.

Compared with `CCn1nccc1C(=O)N[C@H](c1cn2nc(CC3CC(F)(F)CNC3=O)ccc2n1)C1CCC(F)(F)CC1` (single isomer, unassigned) [Compound 25], `CCn1nccc1C(=O)N[C@H](c1cn2nc(CC3CC(F)(F)CNC3=O)c(NC)cc2n1)C1CCC(F)(F)CC1` (single isomer, unassigned) [Compound 74] is higher in IC50: 100 to 1000 nM for the first, > 1000 nM for the second.

Compared with `CCn1nccc1C(=O)N[C@H](c1cn2nc(CC3C[C@@H](C(F)(F)F)CNC3=O)c(N(C)C3CC3)cc2n1)C1CCC(F)(F)CC1` (single isomer, unassigned) [Compound 90], `CCN(C)c1cc2nc([C@@H](NC(=O)c3ccnn3CC)C3CCC(F)(F)CC3)cn2nc1CC1C[C@@H](C(F)(F)F)CNC1=O` (single isomer, unassigned) [Compound 88] is lower in IC50: 100 to 1000 nM for the first, < 100 nM for the second. The second is the more potent here.

`CCn1nccc1C(=O)N[C@H](c1cn2nc(CC3CC(F)(F)CNC3=O)ccc2n1)C1CCCCCC1` (single isomer, unassigned) [Compound 10, N-((1 S)-cycloheptyl(6-((5,5-difluoro-2-oxopiperidin-3-yl)methyl)imidazo[1,2-b]pyridazin-2-yl)methyl)-1-ethyl-1H-pyrazole-5-carboxamide] and `CCn1nccc1C(=O)N[C@H](c1cn2nc(CC3C[C@@H](C(F)(F)F)CNC3=O)ccc2n1)C1CCCCCC1` (stereo partly drawn) [Compound 169, N—((S)-cycloheptyl(6-(((3R.5R)-2-oxo-5-(trifluoromethyl)piperidin-3-yl)methyl)imidazo[1,2-b]pyridazin-2-yl)methyl)-1-ethyl-1H-pyrazole-5-carboxamide] fall in the same range of IC50: 100 to 1000 nM for the first, 100 to 1000 nM for the second.

`CCn1nccc1C(=O)NC(c1cn2nc(CC3CC(C)CNC3=O)ccc2n1)C1CCC(C)CC1` (single isomer, unassigned) [Compound 49] and `CCn1nccc1C(=O)N[C@H](c1cn2nc(CC3C[C@@H](C)NC3=O)ccc2n1)[C@H]1CC[C@H](C)CC1` (single isomer, unassigned) [Compound 63] fall in the same range of IC50: 100 to 1000 nM for the first, 100 to 1000 nM for the second.

First: CCn1nccc1C(=O)N[C@H](c1cn2nc(CC3C[C@@H](C(F)(F)F)CNC3=O)ccc2n1)C12CC(C)(C1)C2 (stereo partly drawn) [Compound 178, 1-ethyl-N-((1S)-(3-methylbicyclo[1.1.1]pentan-1-yl)(6-(((5R)-2-oxo-5-(trifluoromethyl)piperidin-3-yl)methyl)imidazo[1,2-b]pyridazin-2-yl)methyl)-1H-pyrazole-5-carboxamide]
Second: O=C(N[C@H](c1cn2nc(CC3C[C@@H](C(F)(F)F)CNC3=O)ccc2n1)C1CCC(F)(F)CC1)c1ccnn1CC(F)(F)F (stereo partly drawn) [Compound 105, N-((1S)-(4,4-difluorocyclohexyl)(6-(((5R)-2-oxo-5-(trifluoromethyl)piperidin-3-yl)methyl)imidazo[1,2-b]pyridazin-2-yl)methyl)-1-(2,2,2-trifluoroethyl)-1H-pyrazole-5-carboxamide]
The IC50 of the first is higher: > 1000 nM for the first, 100 to 1000 nM for the second. The second is the more potent here.

Compared with `CCn1nccc1C(=O)NC(c1cn2nc(CC3C(=O)NCC4CC43)ccc2n1)C1CCC(C)CC1` (single isomer, unassigned) [Compound 48], `CCn1nccc1C(=O)N[C@H](c1cn2nc(CC3CC(C)(C)CNC3=O)ccc2n1)[C@H]1CC[C@H](C)CC1` (stereo partly drawn) [Compound 58, N-((1S)-(6-((5,5-dimethyl-2-oxopiperidin-3-yl)methyl)imidazo[1,2-b]pyridazin-2-yl)((1r,4S)-4-methylcyclohexyl)methyl)-1-ethyl-1H-pyrazole-5-carboxamide] is higher in IC50: 100 to 1000 nM for the first, > 1000 nM for the second. The first is the more potent here.

`CCn1nccc1C(=O)N[C@H](c1cn2nc(C(C)C3C[C@@H](C(F)(F)F)CNC3=O)ccc2n1)C(C1CC1)C1CC1` (single isomer, unassigned) [Compound 57] and `CCn1nccc1C(=O)NC(c1cn2nc(CC3C(=O)NCC4CC43)ccc2n1)C1CCC(C)CC1` (single isomer, unassigned) [Compound 47] cannot be ordered by IC50: > 1000 nM for the first, > 1000 nM for the second.

First: CCc1nonc1C(=O)N[C@H](c1cn2nc(C[C@H]3C[C@@H](C(F)(F)F)NC3=O)ccc2n1)C(C1CC1)C1CC1 [Compound 20, N—((S)-2,2-dicyclopropyl-1-(6-(((3R,5S)-2-oxo-5-(trifluoromethyl)pyrrolidin-3-yl)methyl)imidazo[1,2-b]pyridazin-2-yl)ethyl)-4-ethyl-1,2,5-oxadiazole-3-carboxamide]
Second: C[C@H]1CC[C@H]([C@H](NC(=O)c2conc2C2CC2)c2cn3nc(CC4C[C@@H](C(F)(F)F)CNC4=O)ccc3n2)CC1 (stereo partly drawn) [Compound 161, 3-cyclopropyl-N-((1S)-((1R.4S)-4-methylcyclohexyl)(6-(((5R)-2-oxo-5-(trifluoromethyl)piperidin-3-yl)methyl)imidazo[1,2-b]pyridazin-2-yl)methyl)isoxazole-4-carboxamide]
The IC50 of the first is higher: 100 to 1000 nM for the first, < 100 nM for the second. The second is the more potent here.

Compared with `N#Cc1cc(C(=O)N[C@H](c2cn3nc(CC4C[C@@H](C(F)(F)F)CNC4=O)ccc3n2)C2CCC(F)(F)CC2)cs1` (stereo partly drawn) [Compound 134, 5-cyano-N-((1S)-(4,4-difluorocyclohexyl)(6-(((5R)-2-oxo-5-(trifluoromethyl)piperidin-3-yl)methyl)imidazo[1,2-b]pyridazin-2-yl)methyl)thiophene-3-carboxamide], `O=C(N[C@H](c1cn2nc(CC3C[C@@H](C(F)(F)F)CNC3=O)ccc2n1)C1CCC(F)(F)CC1)c1cnsn1` (stereo partly drawn) [Compound 132, N-((1S)-(4,4-difluorocyclohexyl)(6-(((5R)-2-oxo-5-(trifluoromethyl)piperidin-3-yl)methyl)imidazo[1,2-b]pyridazin-2-yl)methyl)-1,2,5-thiadiazole-3-carboxamide] is higher in IC50: 100 to 1000 nM for the first, > 1000 nM for the second. The first is the more potent here.

Compared with `CCn1nccc1C(=O)N[C@H](c1cn2nc(CC3C[C@@H](C(F)(F)F)CNC3=O)c(S(C)(=O)=O)cc2n1)C1CCC(F)(F)CC1` (stereo partly drawn) [Compound 184, N-((1S)-(4,4-difluorocyclohexyl)(7-(methylsulfonyl)-6-(((5R)-2-oxo-5-(trifluoromethyl)piperidin-3-yl)methyl)imidazo[1,2-b]pyridazin-2-yl)methyl)-1-ethyl-1H-pyrazole-5-carboxamide], `Cn1nc(C(F)F)cc1C(=O)N[C@H](c1cn2nc(CC3C[C@@H](C(F)(F)F)CNC3=O)ccc2n1)C1CCC(F)(F)CC1` (stereo partly drawn) [Compound 129, N-((1S)-(4,4-difluorocyclohexyl)(6-(((5R)-2-oxo-5-(trifluoromethyl)piperidin-3-yl)methyl)imidazo[1,2-b]pyridazin-2-yl)methyl)-3-(difluoromethyl)-1-methyl-1H-pyrazole-5-carboxamide] is higher in IC50: 100 to 1000 nM for the first, > 1000 nM for the second.
